Measurements published in patent US7879795B2, “Enhancement of tigecycline potency using efflux pump inhibitors” (Mpex Pharmaceuticals, Inc., priority 2004, dated 2011).

Tests used:
[1] = Tissue levels in rat six-hour after 8.4 mg/kg IV bolus; format: in vivo; settings: in words
Description: Tissue levels of compounds 1, 2, 3 and 4 were evaluated in kidney, liver and lung six-hour after 8.4 mg/kg IV bolus administration. FIG. 13 depicts the levels as a function of time.
Compound 67, which is the expected metabolite of proteolytic intracellular degradation of compound 3, was detected in rat tissues after IV infusion, confirming the tissue-specific degradation of compound 3 (Tables 9A, B).

[2] = In vitro stability in rat serum and tissue homogenates (LC/MS/MS); format: in vitro ADME; settings: rat kidney homogenates, as a function of time
Description: To test the stability of the compounds in vitro, samples were prepared and analyzed by LC/MS/MS according to the following procedure.
Homogenization: A chunk of fresh tissue was weighed and mixed with saline at 1:1 ratio (w/v) in a 12×75 mm polypropylene round bottom tube. The mixture was homogenized with a Polytron homogenizer (on ice, 3×10 seconds with 10 second intervals at the setting of 7).
Incubation and TCA-precipitation: An appropriate amount of a tissue homogenate was pre-warmed at 37° C. for 2 minutes in an Eppendorf tube. The compound to be tested was added to the tube to a final concentration of 2 μg/ml, mixed, and a 60 μl aliquot was immediately taken (as 0 hour sample) and mixed with 120 μl of 4% TCA (trichloroacetic acid) in an Eppendorf tube. The temperature of the tube containing the rest of the tissue sample was returned to 37° C. for incubation. Later, samples were taken as scheduled and mixed with TCA as described above. Plasma and lavage samples were directly incubated with the compounds without addition of saline and homogenization.
LC/MS/MS sample vial preparation: TCA-precipitated sample tubes were vortexed for 30 seconds, centrifuged in a microfuge at top speed (13.2 k rpm) for 5 minutes. The supernatant was collected. The pH was neutralized to about 3.5 with ammonium acetate buffer. The sample (45 μl) was transferred to a glass LC/MS/MS vial (Kimble, 11 mm, 1.5 ml) and 5 μl of an internal standard was added to a final concentration of 500 ng/ml. LC/MS/MS analysis was performed in Chemistry Department of San Diego State University.
LC/MS/MS protocol: Thermo-Finnigan TSQ Quantum triple sector mass spectrometer with electrospray (ESI) ionization was used to analyze the samples. The operation conditions were: Mobile phase of pH 3.00 water/formic acid: acetonitrile-methanol (45%:5%:50% by volume); Thermo-Keystone Betabasic C-18 column (2.1 mm×50 mm) operated at 0.100 mL/min.
Many proteases responsible for degrading EPI compounds are located in […]. Lysozymes typically have an acidic pH (about 4.8-5), whereas the pH in tissue homogenates that were prepared was higher (kidney, pH 6.8; liver, pH 6.6; and lung, pH 7.5). To test the effect of tissue homogenates closer to physiological conditions, the pH was lowered to about 6 by adding acetic acid to the tissue homogenates and compound stability was tested. FIG. 2 depicts the stability of compounds 1 and 3 at different pH. […] The pH-dependent degradation of compound 3 was especially evident in kidney homogenates.
FIG. 4 is a bar graph depicting the stability of compound 3 in the supernatant and pellet of kidney tissue homogenates.

[3] = Stability in human kidney tissue preparations; format: in vitro ADME; settings: in words
From the text: The pattern of in vitro stability of compound 3 (stable in serum but unstable in tissues) observed in rodents was also reproduced using human kidney tissues or serum. FIG. 7 compares the in vitro stability of compounds 1 and 3 in human kidney tissue preparations.
FIG. 8 depicts formation of the metabolite, compound 67, in human kidney tissue. Concomitant with the disappearance of compound 3, generation of the expected metabolite of the presumed intralysosomal degradation, compound 67, was detected using human kidney.

[4] = Acute toxicity, minimal lethal dose after IV bolus in mice; format: in vivo, mouse; settings: IV bolus into tail vein, lethal for at least one of three mice
Description: Acute toxicity was measured as minimal lethal dose (MLD). MLD is defined as a minimal concentration of a compound that has lethal effect for at least one mouse from the group of three mice after IV bolus injection into the mouse tail vein.

[5] = test system: P. aeruginosa, PAM1723, overexpressing the MexAB-OprM efflux pump; experiment: Levofloxacin potentiation checkerboard assay (broth microdilution); format: cell-based; settings: in words
Description: Stock solution was stored at −80° C.
The checkerboard assay was performed in microtiter plates. […] EPIs were diluted in the y axis, each row containing an equal concentration of an EPI. The result of these manipulations was that each well of the microtiter plate contains a unique combination of concentrations of the two agents. The assay was performed in MHB with a final bacterial inoculum of 5×10^5 CFU/ml (from an early-log phase culture). Microtiter plates were incubated during 20 h at 35° C. and were read using a microtiterplate reader (Molecular Devices) at 650 nm as well as visual observation using a microtiter plate-reading mirror.

[6] = test system: strain 29A2 of P. aeruginosa overexpressing MexAB-OprM efflux pump; experiment: Neutropenic mice lung model of PA infection; format: in vivo; settings: levofloxacin 30 mg/kg SQ plus EPI IP
Description: Neutropenia was induced by cyclophosphamide 100 mg/kg IP on days 3 and 1 prior to infection. The strain 29A2 of P. aeruginosa overexpressing MexAB-OprM efflux pump was grown overnight in Mueller-Hinton Broth (MHB). The next day overnight culture was diluted in fresh MHB and was allowed to re-grow to ˜10^8 CFU/mL (OD600˜0.3). The culture was spun down, washed twice with phosphate buffered saline (PBS) and re-suspended in PBS to ˜4×10^7 CFU/mL. 50 μl of inoculum was used for intratracheal instillation of mice, which were anesthetized with sevoflourane/oxygen. […] Four mice from each treatment group were euthanized at various times after the start of treatment. The lungs were removed aseptically, homogenized in saline, and immediately plated to determine bacterial load (CFU/ml) in infected lungs. P. aeruginosa is plotted as a function of time in FIG. 20.

[7] = Serum levels of compound 3 after administration of acylated forms in rats; format: in vivo, rat; settings: compound 5 8.4 mg/kg injected, compound 43 10 mg/kg two-hour infusion
Description: Rats were injected with compound 5 (8.4 mg/kg) and serum levels of the parent compound 3 were evaluated after extraction. The serum levels as a function of time are depicted in FIG. 16.
Rats were infused for two hours with compound 43 at 10 mg/kg and serum levels of the parent compound 3 were evaluated after extraction. FIG. 17 depicts the serum levels of compound 3 as a function of time.

PAM1723 = settings: summary of Table 4; in words
Description: Stability in rat and human serum was also evaluated using a bioassay. 320 μg/ml of the test compound was treated with 50% serum for 4 hours.
Bioassays as described in Example 62 and Example 65 were used to evaluate the stability of various compounds in serum and rabbit kidney homogenates.

[8] = test system: P. aeruginosa strain PAM1723 overexpressing MexAB-OprM efflux pump; experiment: Neutropenic mice thigh model of PA infection; format: in vivo; settings: levofloxacin 30 mg/kg SQ, EPI 60 mg/kg IP, 2 hours post-infection
Description: Efficacy of the EPIs was evaluated in a Neutropenic Mice Thigh Model of P. aeruginosa Infection. Neutropenia was induced by cyclophosphamide 100 mg/kg IP on days 3 and 1 prior to infection. P. aeruginosa strain PAM1723 overexpressing MexAB-OprM efflux pump was grown overnight in Mueller-Hinton Broth (MHB). The next day, the overnight culture was diluted in fresh MHB and was allowed to re-grow to ˜10^8 CFU/mL (OD600˜0.3). The culture was spun down, washed twice with phosphate buffered saline (PBS) and re-suspend in PBS to ˜4×10^6 CFU/mL. Next, this culture was mixed 1:1 with 14% hog-gastric mucin in PBS to give a final inoculum of 2×10^6 CFU/mL. Infection was initiated with injection of 0.1 mL of inoculum (˜2×10^5 CFU/thigh) directly into both thighs of each mouse. Two mice from each treatment group were euthanized at various times after the start of treatment. The thighs were removed aseptically, homogenized in saline, and immediately plated to determine bacterial load (CFU/ml). Treatment was initiated 2 hours post infection.

[9] = in vivo; cited from earlier work

Row | Compound | MLD (minimal lethal dose) [4] [mg/kg] | in vitro levofloxacin potentiating activity [5] | metabolism in serum to produce compound 3 [7] | further results
1 | NC(CCc1ccccc1)C(=O)Nc1cnc2ccccc2c1 (stereo in doubt) [Compound 67, 2-(S)-Amino-4-phenyl-N-quinolin-3-yl-butyramide] |  |  |  | detection of metabolite 67 in rat tissues after IV administration of compound 3 [1]: detected; level of degradation product 67 formed from compound 3 [2]: increased; generation of metabolite 67 from compound 3 in human kidney [3]: detected
2 | NCCC[C@H](NC(=O)C[C@H](N)C(=O)O)C(=O)N[C@H](CCc1ccccc1)C(=O)Nc1cnc2ccccc2c1 [Compound 5, 2-(S)-Amino-N-{4-amino-1-(S)-[3-phenyl-1-(R)-(quinolin-3-ylcarbamoyl)-propylcarbamoyl]-butyl}-succinamic acid] | 75 | devoid of levofloxacin potentiating activity | readily metabolized | bacterial load in infected lungs, EPI with levofloxacin [6]: efficacious
3 | N[C@@H](CC(=O)O)C(=O)NCCC[C@H](N)C(=O)N[C@H](CCc1ccccc1)C(=O)Nc1cnc2ccccc2c1 [Compound 34, 3-(S)-Amino-N-{4-(S)-amino-4-[3-phenyl-1-(R)-(quinolin-3-ylcarbamoyl)-propylcarbamoyl]-butyl}-succinamic acid] | 50 |  |  | stability in rat serum (PAM1723): unstable in rat serum
4 | N[C@@H](CC(=O)O)C(=O)NCCC[C@H](NC(=O)[C@@H](N)CC(=O)O)C(=O)N[C@H](CCc1ccccc1)C(=O)Nc1cnc2ccccc2c1 [Compound 43, 3-Amino-(S)—N-{4-(S)-(2-(3)-(S)-amino-3-carboxy-propionylamino)-4-[3-phenyl-1-(R)-(quinolin-3-ylcarbamoyl)-propylcarbamoyl]-butyl}-succinamic acid] | 150 | did not have in vitro levofloxacin potentiating activity | readily metabolized | bacterial load in thighs, EPI with levofloxacin versus levofloxacin alone [8]: potentiated levofloxacin in vivo
5 | N=C(N)c1ccc(OCCCCCOc2ccc(C(=N)N)cc2)cc1 [pentamidine] |  |  |  | incidence of kidney toxicity [9]: above 75%
